What all share (type): biochemical
The target of assay [1] is T1, EGFR (Homo sapiens, UniProt P00533).
T1 construct: The intracellular portion of EGFR started at nucleotide 2189 (corresponding to amino acid 667) and ended at the termination codon; made in house; host or cells: Sf9 insect cells (baculovirus)
Description: EGFR Kinase Assay. The note with it: for inhibition at 2 µM: test concentration of 2 μM, compounds without an IC50, read-out: EGFR inhibition in percent; for IC50: GST-EGFR, ATP 5 μM. The method in brief:
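GST-fused human EGFR intracellular domain (from aa 667), Sf9-expressed, phosphorylated biotinylated polyGluTyr with 5 μM ATP plus γ-33P ATP in Tris pH 8.0, MgCl2, vanadate, 1 mM DTT, 1 h at 30 °C. Streptavidin Flashplate scintillation read; triplicate 16-point half-log series from 200 uM; IC50 from % inhibition vs log concentration, else % inhibition at 2 μM.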

Assay [2] concerns the target T2, c-Src kinase (human) (Homo sapiens, UniProt P12931).
T2 construct: purchased Upstate Biotechnology, Lake Placid, N.Y
In words: c-Src Kinase Assay. The note with it: test concentration of 2 μM; multiple values are separate assay results. The method in brief:
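Inhibition was read as 33P incorporation, counted on P30 filtermats, after a 40 min, 30° C reaction. Human c-Src acted on 100 μM Cdc2 peptide with 5 μM ATP (final), pH 7.0 MOPS/MgCl2. Values are percent inhibition at 2 μM compound, or IC50 where determined.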

The target in assay [3] is T3, Lyn kinase (human) (Homo sapiens, UniProt P07948).
T3 construct: purchased Upstate Biotechnology, Lake Placid, N.Y
T3 sequence (P07948 whole entry): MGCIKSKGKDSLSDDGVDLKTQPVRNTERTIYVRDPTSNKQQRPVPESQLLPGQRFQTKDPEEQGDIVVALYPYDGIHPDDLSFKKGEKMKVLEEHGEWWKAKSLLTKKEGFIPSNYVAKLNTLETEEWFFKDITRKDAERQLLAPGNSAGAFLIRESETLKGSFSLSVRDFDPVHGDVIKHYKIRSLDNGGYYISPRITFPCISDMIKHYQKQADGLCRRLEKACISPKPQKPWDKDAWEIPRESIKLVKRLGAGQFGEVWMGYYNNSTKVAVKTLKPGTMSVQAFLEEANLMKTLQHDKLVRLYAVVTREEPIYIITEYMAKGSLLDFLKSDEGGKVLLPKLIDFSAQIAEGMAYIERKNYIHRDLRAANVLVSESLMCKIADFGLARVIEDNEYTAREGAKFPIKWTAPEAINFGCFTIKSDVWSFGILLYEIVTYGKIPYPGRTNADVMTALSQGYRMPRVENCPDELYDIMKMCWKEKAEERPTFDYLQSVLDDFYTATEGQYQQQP
In words: Lyn Kinase Assay. The note with it: test concentration of 2 μM. The method in brief:
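Radiometric filter-binding assay with recombinant human Lyn, poly(Glu,Tyr) substrate (0.1 mg/mL final), 5 μM ATP plus γ-33P-ATP in MOPS pH 7.5/Mg acetate buffer; 40 min at 30 °C, stopped with phosphoric acid, counted by scintillation. Reported as percent inhibition at 2 μM, with IC50 (μM) where determined.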

For assay [4], the target named is T4, HER-2 (Homo sapiens, UniProt P04626).
T4 construct: His6 with thrombin site (N); purchased Proqinase (Freiburg, Germany)
T4 sequence (P04626 679-1255): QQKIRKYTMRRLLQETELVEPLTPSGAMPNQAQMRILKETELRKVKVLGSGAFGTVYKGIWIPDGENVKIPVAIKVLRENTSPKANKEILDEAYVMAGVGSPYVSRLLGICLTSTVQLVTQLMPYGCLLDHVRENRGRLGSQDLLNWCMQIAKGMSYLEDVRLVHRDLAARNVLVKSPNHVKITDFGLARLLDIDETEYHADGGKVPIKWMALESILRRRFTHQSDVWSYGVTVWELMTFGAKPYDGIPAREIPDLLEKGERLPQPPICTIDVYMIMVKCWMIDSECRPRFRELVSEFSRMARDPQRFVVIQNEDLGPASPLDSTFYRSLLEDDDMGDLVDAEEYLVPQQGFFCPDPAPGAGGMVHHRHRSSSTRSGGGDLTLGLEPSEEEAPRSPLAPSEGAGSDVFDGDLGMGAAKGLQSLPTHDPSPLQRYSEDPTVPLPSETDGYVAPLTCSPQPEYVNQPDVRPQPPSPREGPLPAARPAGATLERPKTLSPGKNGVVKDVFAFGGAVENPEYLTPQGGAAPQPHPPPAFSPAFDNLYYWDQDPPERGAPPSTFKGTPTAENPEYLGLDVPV
Description: HER-2 Kinase Assay. The note with it: for inhibition at 1 µM: test concentration of 1 μM; for IC50: value in parentheses. The method in brief:
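GST/HIS6-tagged HER-2 aa 679–1255 kinase with biotinylated polyGluTyr (1.5 ng/μL), 1 μM ATP plus γ-33P-ATP, Mg2+/Mn2+, DTT, Hepes pH 7.5; 1 h at 30 °C. Substrate phosphorylation captured on streptavidin scintillation plates after EDTA/PBS washes; values are % inhibition at 1 μM or IC50.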

The structures appear in SMILES notation. A value given as a limit tells only on which side of the number the result lay.

T2 sequence (P12931 whole entry): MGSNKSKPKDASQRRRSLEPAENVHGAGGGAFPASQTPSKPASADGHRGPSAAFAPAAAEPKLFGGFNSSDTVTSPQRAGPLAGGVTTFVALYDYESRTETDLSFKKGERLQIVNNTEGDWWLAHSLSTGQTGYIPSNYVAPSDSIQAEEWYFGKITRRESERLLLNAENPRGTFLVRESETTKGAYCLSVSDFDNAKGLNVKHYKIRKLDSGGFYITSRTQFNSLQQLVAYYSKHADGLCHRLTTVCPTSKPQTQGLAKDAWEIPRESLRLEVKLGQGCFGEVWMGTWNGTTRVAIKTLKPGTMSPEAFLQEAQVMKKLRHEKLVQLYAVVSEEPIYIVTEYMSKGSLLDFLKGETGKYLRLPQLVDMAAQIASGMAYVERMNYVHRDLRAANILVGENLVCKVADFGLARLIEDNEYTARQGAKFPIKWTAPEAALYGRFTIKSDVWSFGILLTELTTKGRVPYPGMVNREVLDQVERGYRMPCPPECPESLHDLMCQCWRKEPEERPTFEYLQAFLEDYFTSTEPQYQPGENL
T1 sequence (P00533 669-1210 limits assumed): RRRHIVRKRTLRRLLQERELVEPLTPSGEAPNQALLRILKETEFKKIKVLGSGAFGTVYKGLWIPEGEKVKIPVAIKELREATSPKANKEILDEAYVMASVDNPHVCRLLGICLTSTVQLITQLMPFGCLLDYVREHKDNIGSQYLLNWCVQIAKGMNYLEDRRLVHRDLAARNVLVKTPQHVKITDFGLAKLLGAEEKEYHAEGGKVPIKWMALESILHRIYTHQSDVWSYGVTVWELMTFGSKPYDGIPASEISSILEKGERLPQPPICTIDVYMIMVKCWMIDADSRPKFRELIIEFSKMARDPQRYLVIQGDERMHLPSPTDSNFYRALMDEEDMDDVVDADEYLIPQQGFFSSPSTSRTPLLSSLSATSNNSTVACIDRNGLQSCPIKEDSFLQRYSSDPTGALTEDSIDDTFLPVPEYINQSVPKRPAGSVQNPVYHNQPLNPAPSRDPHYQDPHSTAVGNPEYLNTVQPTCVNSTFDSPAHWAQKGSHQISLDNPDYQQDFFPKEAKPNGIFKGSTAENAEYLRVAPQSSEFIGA

Broadly, the inhibition is the change of the read-out against control, counted positive when it falls. For the compound `COc1cc(NC(=O)c2sc3ncnc4c3c2NC(=O)N4c2cc(OCc3cccc(F)c3)c(Cl)cc2Cl)ccc1OCCN1CCCCC1` [Cpd 56, 5-[2,4-dichloro-5-(3-fluoro-benzyloxy)-phenyl]-4-oxo-4,5-dihydro-3H-1-thia-3,5,6,8-tetraaza-acenaphthylene-2-carboxylic acid [3-methoxy-4-(2-piperidin-1-yl-ethoxy)-phenyl]-amide], the inhibition at 2 µM in assay [1] is 20%; in assay [2] it was -22%; in assay [3], 7%. For the same compound, the inhibition at 1 µM in assay [4] is -6%.

What is called IC50 is the concentration at which inhibition is half-maximal. Turning to `O=C1Nc2csc3ncnc(c23)N1c1ccc2c(ccn2Cc2cccc(F)c2)c1` [Cpd 152, 5-[1-(3-fluoro-benzyl)-1H-indol-5-yl]-3H,5H-1-thia-3,5,6,8-tetraaza-acenaphthylen-4-one], the IC50 in assay [1] was determined as 333 nM; in assay [4] it was 3720 nM. The values for the inhibition at 2 µM in assay [2] and in assay [3] were -6% and 7%, respectively.

Consider `O=C(Nc1ccc(CCN2CCCCC2)cc1)c1sc2ncnc3c2c1NC(=O)N3c1ccc(Oc2ccccc2)c(Cl)c1` [Cpd 136, 5-(3-chloro-4-phenoxy-phenyl)-4-oxo-4,5-dihydro-3H-1-thia-3,5,6,8-tetraaza-acenaphthylene-2-carboxylic acid [4-(2-piperidin-1-yl-ethyl)-phenyl]-amide], for which the IC50 amounted to 31 nM in assay [1] and 222 nM in assay [4]. Besides, the inhibition at 2 µM in assay [2] is -41%; in assay [3], 43%. For the same compound, the inhibition at 1 µM in assay [4] came out at 70%.

On to `COc1cc(N2C(=O)Nc3c(C(=O)O)sc4ncnc2c34)c(Cl)cc1Cl` [Cpd 41, 5-(2,4-dichloro-5-methoxy-phenyl)-4-oxo-4,5-dihydro-3H-1-thia-3,5,6,8-tetraaza-acenaphthylene-2-carboxylic acid], for which the inhibition at 2 µM in assay [1] came out at 11%; in assay [2] it was 18%; in assay [3] it was 29%. The inhibition at 1 µM in assay [4] is -17%.

For `O=C(Nc1ccc(CN2CCOCC2)cc1)c1sc2ncnc3c2c1NC(=O)N3c1ccc(F)cc1Cl` [Cpd 16, 5-(2-chloro-4-fluoro-phenyl)-4-oxo-4,5-dihydro-3H-1-thia-3,5,6,8-tetraaza-acenaphthylene-2-carboxylic acid (4-morpholin-4-ylmethyl-phenyl)-amide], the IC50 amounted to 223 nM in assay [1] and 5440 nM in assay [4]. Also, the figures for the inhibition at 2 µM in assay [2] and in assay [3] were 52% and 68%, respectively. Further, the inhibition at 1 µM in assay [4] was determined as 54%.

On to `O=C(Nc1ccc(CN2CCOCC2)cc1)c1sc2ncnc3c2c1NC(=O)N3c1ccccc1Cl` [Cpd 149, 5-(2-chloro-phenyl)-4-oxo-4,5-dihydro-3H-1-thia-3,5,6,8-tetraaza-acenaphthylene-2-carboxylic acid (4-morpholin-4-ylmethyl-phenyl)-amide], for which the figures for the IC50 in assay [1] and in assay [4] were 187 nM and 2540 nM, respectively. Also, the inhibition at 2 µM in assay [2] was found to be 54%; in assay [3], 72%. For the same compound, the inhibition at 1 µM in assay [4] was 53%.

Regarding `O=C(NCCCO)c1sc2ncnc3c2c1NC(=O)N3c1ccc(Oc2cccc(F)c2)cc1` [Cpd 133, 5-[4-(3-fluoro-phenoxy)-phenyl]-4-oxo-4,5-dihydro-3H-1-thia-3,5,6,8-tetraaza-acenaphthylene-2-carboxylic acid (3-hydroxy-propyl)-amide], the concentration for half-maximal inhibition (IC50) in assay [1] was 34 nM; in assay [4], over 10000 nM. Besides, the results for the inhibition at 2 µM in assay [2] and in assay [3] were 16% and 20%, respectively. In addition, the inhibition at 1 µM in assay [4] is 0%.

In assay [1], `O=C(Nc1ccc(CN2CCCCC2)cc1)c1sc2ncnc3c2c1NC(=O)N3c1ccccc1Cl` [Cpd 150, 5-(2-chloro-phenyl)-4-oxo-4,5-dihydro-3H-1-thia-3,5,6,8-tetraaza-acenaphthylene-2-carboxylic acid (4-piperidin-1-ylmethyl-phenyl)-amide] displayed an IC50 of 170 nM. Further, the inhibition at 2 µM in assay [2] came to 52%; in assay [3], 77%. The inhibition at 1 µM in assay [4] worked out at 18%.

In assay [1], `COc1cc(NC(=O)c2sc3ncnc4c3c2NC(=O)N4c2cc(OC)c(OC)c(OC)c2Cl)ccc1OCC1CCCCO1` (stereo not drawn) [Cpd 30, 5-(2-chloro-3,4,5-trimethoxy-phenyl)-4-oxo-4,5-dihydro-3H-1-thia-3,5,6,8-tetraaza-acenaphthylene-2-carboxylic acid [3-methoxy-4-(tetrahydro-pyran-2-ylmethoxy)-phenyl]-amide] showed a half-maximal inhibitory concentration (IC50) of 19200 nM. Besides, the inhibition at 2 µM is 1% in assay [2] and -6% in assay [3]. Moreover, the inhibition at 1 µM in assay [4] is 19%.

In the case of `COc1ccc(N2C(=O)Nc3c(C(=O)Nc4ccc(CN5CCCCC5)cc4)sc4ncnc2c34)cc1Cl` [Cpd 121, 5-(3-chloro-4-methoxy-phenyl)-4-oxo-4,5-dihydro-3H-1-thia-3,5,6,8-tetraaza-acenaphthylene-2-carboxylic acid (4-piperidin-1-ylmethyl-phenyl)-amide], the IC50 was 344 nM in assay [1] and 3520 nM in assay [4]. In addition, the inhibition at 2 µM in assay [2] was -1%; in assay [3], -13%.

In the case of `O=C(NCc1ccco1)c1sc2ncnc3c2c1NC(=O)N3c1ccc(N2CCOCC2)cc1` [Cpd 127, 5-(4-morpholin-4-yl-phenyl)-4-oxo-4,5-dihydro-3H-1-thia-3,5,6,8-tetraaza-acenaphthylene-2-carboxylic acid (furan-2-ylmethyl)-amide], the figures for the inhibition at 2 µM in assay [1], in assay [2] and in assay [3] were 0.5%, -2% and 25%, respectively. Further, the IC50 in assay [4] was over 100000 nM.

As to `COc1cc(N2C(=O)Nc3c(C(=O)O)sc4ncnc2c34)cc(OC)c1OC` [Cpd 42, 4-oxo-5-(3,4,5-trimethoxy-phenyl)-4,5-dihydro-3H-1-thia-3,5,6,8-tetraaza-acenaphthylene-2-carboxylic acid], the inhibition at 2 µM in assay [1] is -3%; in assay [2], 8%; in assay [3], 24%. Further, in assay [4], the inhibition at 1 µM was -36%.

In the case of `O=C(NCCCO)c1sc2ncnc3c2c1NC(=O)N3c1ccc(Oc2ccccc2)cc1` [Cpd 106, 4-oxo-5-(4-phenoxy-phenyl)-4,5-dihydro-3H-1-thia-3,5,6,8-tetraaza-acenaphthylene-2-carboxylic acid (3-hydroxy-propyl)-amide], the results for the IC50 in assay [1] and in assay [4] were 42 nM and 771 nM, respectively. Besides, the inhibition at 2 µM is 30% in assay [2] and 27% in assay [3].

Regarding `COc1cc(N2C(=O)Nc3c(C(=O)Nc4ccc(CN5CCOCC5)cc4)sc4ncnc2c34)c(Cl)cc1Cl` [Cpd 44, 5-(2,4-dichloro-5-methoxy-phenyl)-4-oxo-4,5-dihydro-3H-1-thia-3,5,6,8-tetraaza-acenaphthylene-2-carboxylic acid (4-morpholin-1-ylmethyl-phenyl)-amide], the inhibition at 2 µM was 26% in assay [1], 45% in assay [2] and 49% in assay [3]. Besides, in assay [4], the inhibition at 1 µM amounted to 21%.

The compound `COc1cc(N2C(=O)Nc3c(C(=O)Nc4ccc(OCCN5CCOCC5)c(OC)c4)sc4ncnc2c34)c(Cl)cc1Cl` [Cpd 34, 5-(2,4-dichloro-5-methoxy-phenyl)-4-oxo-4,5-dihydro-3H-1-thia-3,5,6,8-tetraaza-acenaphthylene-2-carboxylic acid [3-methoxy-4-(2-morpholin-4-yl-ethoxy)-phenyl]-amide] came in with an IC50 in assay [1] of 5370 nM. The inhibition at 2 µM came out at 23% in assay [2] and 10% in assay [3]. Also, the inhibition at 1 µM in assay [4] is -14%.

Regarding `Cc1cccc(Cl)c1N1C(=O)Nc2c(C(=O)Nc3ccc(CN4CCOCC4)cc3)sc3ncnc1c23` [Cpd 146, 5-(2-chloro-6-methyl-phenyl)-4-oxo-4,5-dihydro-3H-1-thia-3,5,6,8-tetraaza-acenaphthylene-2-carboxylic acid (4-morpholin-4-ylmethyl-phenyl)-amide], the figures for the inhibition at 2 µM in assay [1], in assay [2] and in assay [3] were 37%, 45% and 65%, respectively. For the same compound, the inhibition at 1 µM in assay [4] is 21%.

Take `C[C@H](c1ccccc1)N1C(=O)Nc2c(C(=O)O)sc3ncnc1c23` [Cpd 170, 4-oxo-5-[(1R)-1-phenyl-ethyl]-4,5-dihydro-3H-1-thia-3,5,6,8-tetraaza-acenaphthylene-2-carboxylic acid]: the inhibition at 2 µM amounted to 11% in assay [1], 4% in assay [2] and 12% in assay [3]. Also, in assay [4], the IC50 is over 100000 nM.

(Values after patent US7579356B2, “Thia-tetraazaacenaphthylene kinase inhibitors” (Janssen Pharmaceutica NV, priority 2005, dated 2009).)
